# Measurements reported in US5428059A, “Benzopyran derivatives and an anti-allergic agent possessing the same as the active ingredient” (Dainippon Ink & Chemicals, Inc., priority 1991, dated 1995).
# Tested on: Hartley-type male guinea pigs
# Experiment: Guinea Pig Homogeneous Skin Passive Anaphylaxis Assay (PCA reaction)
# Type: in vivo, guinea pig (Hartley-type)
# Conditions: 10 mg/kg oral, 48 h after sensitization
# Protocol: In order to confirm the anti-allergic action of the compounds according to the present invention, as an anti-allergic action confirmation assay, the widely used Guinea Pig Homogeneous Skin Passive Anaphylaxis Assay (PCA Reaction Assay; Passive Cutaneous Anaphylaxis Reaction Assay) was carried out. The assay method used will be explained in the following.
# Assay method: Hartley-type male guinea pigs (body weight: 250~300 g) were sensitized by the following procedure; a mixture of 2 μg of egg albumin (OVA) and 5 μg of aluminium hydroxide gel was administered intraperitoneally 3 times every 2 weeks, and the anti-OVA blood serum was manufactured.
# The anti-blood serum obtained was then diluted 120 times using physiological saline solution, and then to groups each containing 6 shaved guinea pigs, was injected at a quantity of 0.05 ml respectively, into two positions in the back portion, inside the skin of each animal.
# After the 48th hour of sensitization, 10 mg/kg of the test substance to be tested was orally administered, following which a mixture of 2 mg OVA and 5 mg of Evans Blue was administered by intraveneous injection into the hind leg, triggering the anaphylaxis reaction. As the positive control, Tranilast, a well known anti-allergic agent, was used, and in the same manner as the substances to be tested, 100 mg/kg of it was orally administered after the 48th hour of sensitization.
# 30 minutes after triggering the reaction, the animals were bled to death under ether anesthesia, and their back portion skins were peeled off. The long and short diameters of pigment leakage spots on the interior surface of the skins were measured, and the product of these (mm^2) were entered into formula 1 as "pigment leakage amount", from which the allergic reaction inhibitory index wins calculated. [formula]
# I: Allergic reaction inhibitory index (%)
# A: Pigment leakage amount of solvent control group
# B: Pigment leakage amount of test substance group
# C: Pigment leakage amount of […]
row,SMILES,Allergic reaction inhibitory index (%)
1,"COc1cccc2c(OC(C)=O)c(OC(C)=O)c(=O)oc12 [Compound 113, 3,4-(diacetoxy)-8-(methoxy)-2H-1-benzopyran-2-one]",30

# Same assay, conditions: Cavia porcellus, 10 mg/kg oral, 48 h after sensitization, read-out: Allergic reaction inhibitory index (%)
row,SMILES,inhibition in vivo at 10 mg/kg [%]
1,"COc1cccc2oc(=O)c(OC(C)=O)c(OC/C=C(\C)CCC=C(C)C)c12 [Compound 206, 3-(acetoxy)-4-(geranyloxy)-5-(methoxy)-2H-1-benzopyran-2-one]",32
2,"CC(=O)Oc1c(O)c(=O)oc2cc(OC(C)C)ccc12 [Compound 46, 3-hydroxy-4-(acetoxy)-7-(isopropoxy)-2H-1-benzopyran-2-one]",34
3,"COc1ccc2c(O)c(OC(C)C)c(=O)oc2c1 [Compound 34, 3-(isopropoxy)-4-hydroxy-7-(methoxy)-2H-1-benzopyran-2-one]",39
4,"CC(C)=CCC/C(C)=C/COc1c(OC(=O)c2ccccc2)c(=O)oc2cc(O)ccc12 [Compound 23, 3-(benzoyloxy)-4-(geranyloxy)-7-hydroxy-2H-1-benzopyran-2-one]",30
5,"CCCCCCCCCCOc1c(OC(C)=O)c(=O)oc2cccc(OC(C)C)c12 [Compound 217, 3-(acetoxy)-4-(decyloxy)-5-(isopropoxy)-2H-1-benzopyran-2-one]",30
6,"CC(C)=CCC/C(C)=C/COc1c(OC(C)C)c(=O)oc2c(O)cccc12 [Compound 108, 3-(isopropoxy)-4-(geranyloxy)-8-hydroxy-2H-1-benzopyran-2-one]",32
7,"CCCCOc1cccc2oc(=O)c(OC(=O)c3ccccc3)c(O)c12 [Compound 226, 3-(benzoyloxy)-4-hydroxy-5-(butoxy)-2H-1-benzopyran-2-one]",33
8,"CC(C)=CCC/C(C)=C/COc1c(OC/C=C(\C)CCC=C(C)C)c2cccc(O)c2oc1=O [Compound 109, 3,4-(digeranyloxy)-8-hydroxy-2H-1-benzopyran-2-one]",34
9,"CCCCCCCCCCOc1c(O)c2c(OC(C)C)cccc2oc1=O [Compound 214, 3-(decyloxy)-4-hydroxy-5-(isopropoxy)-2H-1-benzopyran-2-one]",38
10,"CCCCCCCCCCOc1ccc2c(O)c(OC(=O)c3ccccc3)c(=O)oc2c1 [Compound 58, 3-(benzoyloxy)-4-hydroxy-7-(decyloxy)-2H-1-benzopyran-2-one]",38
11,"CC(=O)Oc1c(OC(=O)c2ccccc2)c(=O)oc2c(OC/C=C(\C)CCC=C(C)C)cccc12 [Compound 161, 3-(benzoyloxy)-4-(acetoxy)-8-(geranyloxy)-2H-1-benzopyran-2-one]",31
12,CCCCCCCCCCOc1c(O)c2cc(OC)ccc2oc1=O [Compound 274],35
13,"CC(C)=CCC/C(C)=C/COc1c(O)c(=O)oc2cccc(OC(C)C)c12 [Compound 220, 3-hydroxy-4-(geranyloxy)-5-(isopropoxy)-2H-1-benzopyran-2-one]",30
14,"CCCCCCCCCCOc1ccc2oc(=O)c(O)c(O)c2c1 [Compound 273, 3,4-(dihydroxy)-6-(decyloxy)-2H-1-benzopyran-2-one]",30
15,"COc1ccc2c(OC/C=C(\C)CCC=C(C)C)c(O)c(=O)oc2c1 [Compound 38, 3-hydroxy-4-(geranyloxy)-7-(methoxy)-2H-1-benzopyran-2-one]",31
16,"COc1c(OC/C=C(\C)CCC=C(C)C)c(=O)oc2cc(OC/C=C(\C)CCC=C(C)C)ccc12 [Compound 87, 3,7-(digeranyloxy)-4-(methoxy)-2H-1-benzopyran-2-one]",31
17,"CCCCCCCCCCOc1cccc2c(OCCCC)c(O)c(=O)oc12 [Compound 148, 3-hydroxy-4-(butoxy)-8-(decyloxy)-2H-1-benzopyran-2-one]",31
18,"O=C(Oc1c(O)c2cccc(O)c2oc1=O)c1ccccc1 [Compound 92, 3-(benzoyloxy)-4,8-dihydroxy-2H-1-benzopyran-2-one]",33
